Test results from paper PMC5711933, “Intracellular biomass flocculation as a key mechanism of rapid bacterial killing by cationic, amphipathic antimicrobial peptides and peptoids” (Scientific Reports, 2017).
Where two headings read alike, the source gives them in different places. Marks after values point to notes of the source that are not given here. Non-standard residues stand in square brackets, D forms with d. Residues, ends and D or L forms follow the SMILES beside them. N(1S-Me-propyl)Gly = CC[C@H](C)NCC(=O)O; Nspe = C[C@H](NCC(=O)O)c1ccccc1; Nlys = NCCCCNCC(=O)O

Tests used:
[1] = RP-HPLC elution (% ACN) as measure of hydrophobicity; format: physicochemical; details: chromatographic hydrophobicity; gradient of 5–95% acetonitrile (ACN) over 45 minutes, C18 column, 0.2 mL/min; average of three replicates
E. coli ATCC 35218 [2] = format: cell-based; details: CAMHB, 35 °C, 16 h, final 5 × 10^5 CFU/mL, reproducible between three independent replicates
Protocol: MICs were determined according to CLSI M7-A6 protocols in a 96-well microtiter plate. In test wells, 50 μL bacterial inoculum (1 × 10^6 CFU/ml) in cation-adjusted Mueller-Hinton broth (CAMHB) was added to 50 μL peptoid solution in CAMHB (prepared by 1:2 serial dilutions). Positive controls contained 50 μL inoculum and 50 μL CAMHB without peptoid. […] MIC values reported were reproducible between three independent experimental replicates, each consisting of two parallel trials.

Erythrocytes = experiment: Hemolysis assay; format: cell-based; details: human erythrocytes in PBS pH 7.4, 1 h at 37 °C, A350; three independent replicates (two for LL-37 and fowlicidin-1)
Protocol: The plate was then centrifuged at 1200 g for 15 min, 100 μL of the supernatant from each well transferred to a fresh microtiter plate, and A350 measured.

E. coli ATCC 35218 [3] = experiment: Bacterial count by plating after 1-hour treatment, before SEM sample preparation; format: cell-based; details: 1 hour in PBS, control 5 × 10^5 CFU/mL
Protocol: E. coli was treated with 10 μM peptide or peptoid for 1 hour in phosphate-buffered saline (PBS). […] We used 10 μM peptide/peptoid for all samples since it is near the MICs of the majority of the oligomers.
Before fixation, aliquots of each samples were serially diluted and plated on agar to determine the concentration of live bacteria remaining after the 1-hour treatment. […] (1) SEM samples were treated in PBS (as discussed above), whereas MIC assays are performed in cation-adjusted Mueller-Hinton broth. AMPs and ampetoids are known to interact with ions in the media (for example, when switching from plain Mueller-Hinton broth to cation-adjusted Mueller-Hinton broth)[1], so differences in activity may be due to changes in media composition. (2) the treatments were for one hour only, whereas MICs are determined after 16 hours of growth. […] (3) Some of these compounds may cause inhibition of growth without causing bacterial cell death (i.e., they are bacteriostatic—which is what the MIC indicates—rather than bactericidal—which is determined by plating and counting colonies). […]
Overnight cultures of E. coli ATCC 35218 were centrifuged for 10 min and 2500 × g at room temperature, then resuspended in PBS. […] Bacterial concentrations of the diluted suspensions were calculated from their OD590 values using optical density curves derived from pre-determined concentrations. […]

E. coli ATCC 35218 [4] = experiment: Bacterial count by plating after treatment, before TEM sample preparation; format: cell-based; details: for TEM: Bacterial count after 10 µM treatment (% of control) / TEM: Bacterial count after 100 µM treatment (% of control): 1 hour in PBS pH 7.4, control 1 × 10^8 CFU/mL
Protocol: E. coli ATCC 35218, grown overnight at 35 °C in Mueller-Hinton broth (MHB), were resuspended in 1X (150 mM) PBS, pH 7.4, and diluted to a concentration of 1 × 10^8 CFU/mL. Aqueous peptide/peptoid stock solutions were added to 1 mL aliquots of the suspension to the desired final concentration. After 1 hour, small volumes of each sample were serially diluted, plated, and incubated overnight at 35 °C, to be counted the following day. The remaining volume of each sample was centrifuged, and the pellet resuspended and enrobed in 5–10 µL of 2% low-melting agarose (gelling temperature 25° ± 5 °C) then drawn up into the tip of a Pasteur pipette. The solidified rods were extruded into fixative (2% glutaraldehyde, 2% paraformaldehyde, 50 mM PBS, pH 7.4). […] 50 nm thin sections of embedded samples were cut using a diamond knife, stained for 5 min in 5% aqueous uranyl acetate, then rinsed in H2O. Sections were examined in a JEOL 1230 TEM. Experimental conditions were each repeated in at least two independent trials. For each replicate of each sample, bacteria across the thin section were first surveyed to determine morphological characteristics representative of that sample, then images were captured of at least five bacteria displaying those morphologies with an emphasis on clean (i.e., orthogonal) transverse and/or longitudinal sections. Each image shown is thus representative of the ultrastructural characteristics observed in bacteria throughout a given sample and between replicates.

EGFP-Luc plasmid = experiment: DNA retardation assay (gel electrophoresis); format: binding; details: EGFP-Luc plasmid in TBS, complexes 20 min at room temperature, 1–2% agarose gel
Protocol: DNA retardation was analyzed by gel electrophoresis. Peptoid/peptide-DNA complexes were formed by adding 10 µL of peptide/peptoid solution of varying concentrations to 10 µL DNA solution (EGFP-Luc plasmid in Tris-buffered saline (TBS) buffer), and the resulting solution was mixed by gentle aspiration. Complexes were incubated for 20 min at room temperature. After complex formation, 20 µL of each sample were loaded onto a 1–2% agarose gel in Tris/borate/EDTA (TBE) buffer, which ran at 120 V for 15 min. DNA bands on the gel were visualized under UV light by ethidium bromide staining.

[5] = tested on: Bioluminescent P. aeruginosa; format: cell-based, Pseudomonas aeruginosa; details: 12.5 µM, LB, 37 °C
Protocol: The decrease in bioluminescence at 37 °C was measured for a range of concentrations from 0 – 100 μM (Supp. Figs. S6 and S7).
Bioluminescent P. aeruginosa [73] was grown at 37 °C in Luria-Bertani (LB) broth. […] In a 96-well plate, 50 µL of P. aeruginosa solution (1 × 10^6 CFU/mL) was added to 50 µL of antimicrobial solution, and the bioluminescence was measured using an IVIS imaging system (a Xenogen product from Caliper Life Sciences, Hopkinton, MA) at 10 min intervals for 2 h. The reported values are the average of three independent experiments with two replicates each.

[6] = tested on: E. coli bacterial ribosomes; experiment: Aggregation of bacterial ribosomes (optical density at 550 nm); format: biochemical; details: 1 µM ribosome solution, antimicrobial up to 800 µM, 10 min, λ = 550 nm
Protocol: In a microcentrifuge tube, 5 µl of 1 µM purified bacterial ribosome solution (~40X diluted (v/v) from their intracellular concentration in bacterial cytosol)[62] was incubated with 5 µl of antimicrobial solution in a concentration range of 0–800 µM for 10 min. The absorbance of the solution was measured by UV-Vis spectroscopy at λ = 550 nm by a spectrophotometer (ND-1000, Thermo Scientific, Wilmington, DE). The values are reported as the average of three independent experiments with three replicates each.

SMILES	% ACN at RP-HPLC elution [1] [%]	E. coli ATCC 35218 MIC (E. coli ATCC 35218 [2]) [µM]	HD10 (hemolytic dose; concentration for 10% hemolysis) (Erythrocytes) [µM]	HD50 (hemolytic dose; concentration for 50% hemolysis) (Erythrocytes) [µM]	SEM: Bacterial count after 10 µM treatment (% of control) (E. coli ATCC 35218 [3])	TEM: Bacterial count after 10 µM treatment (% of control) (E. coli ATCC 35218 [4])	Bacteria remaining after 5-min treatment (E. coli ATCC 35218 [4]; 100 µM, 5 minutes)	Bacteria remaining after 5-min treatment (% of bacteria in the control) (E. coli ATCC 35218 [4]; 100 µM, 5 minutes) [%]	TEM: Bacterial count after 100 µM treatment (% of control) (E. coli ATCC 35218 [4]; 100 µM)	Bacterial killing after 15-min, 30-min, and 60-min treatments (E. coli ATCC 35218 [4]; 100 µM, 15, 30 and 60 minutes)	Retardation assay: mass of compound required to completely retard migration of 1 µg of DNA (EGFP-Luc plasmid)	Decrease in bioluminescence within 10 min ([5]; 10 min, average of three independent experiments with two replicates each)	E. coli ATCC 35218 MIC (E. coli ATCC 35218 [2]; listed as peptoid 2) [µM]	Activity in bioluminescence kinetics assay (in words) ([5]; up to 2 h)	Aggregation of ribosomes (in words) [6]
C[C@@H](c1ccccc1)N(CC(N)=O)C(=O)CN(C(=O)CN(CCCCN)C(=O)CN(C(=O)CN(C(=O)CN(CCCCN)C(=O)CN(C(=O)CN(C(=O)CN(CCCCN)C(=O)CN(C(=O)CN(C(=O)CNCCCCN)[C@@H](C)c1ccccc1)[C@@H](C)c1ccccc1)[C@@H](C)c1ccccc1)[C@@H](C)c1ccccc1)[C@@H](C)c1ccccc1)[C@@H](C)c1ccccc1)[C@@H](C)c1ccccc1 [compound 1] (H-[Nlys][Nspe][Nspe][Nlys][Nspe][Nspe][Nlys][Nspe][Nspe][Nlys][Nspe][Nspe]-NH2)	64.2	6.3	14	62	40 % of control	0.2 % of control	1 × 10^4 CFU/mL	0.01	0 (0) % of control	all bacteria were killed	3.0 µg	~ 99.9%			
CC[C@H](C)N(CC(N)=O)C(=O)CN(C(=O)CN(CCCCN)C(=O)CN(C(=O)CN(C(=O)CN(CCCCN)C(=O)CN(C(=O)CN(C(=O)CN(CCCCN)C(=O)CN(C(=O)CN(C(=O)CNCCCCN)[C@@H](C)CC)[C@@H](C)CC)[C@@H](C)CC)[C@@H](C)CC)[C@@H](C)CC)[C@@H](C)CC)[C@@H](C)CC [compound 2] (H-[Nlys][N(1S-Me-propyl)Gly][N(1S-Me-propyl)Gly][Nlys][N(1S-Me-propyl)Gly][N(1S-Me-propyl)Gly][Nlys][N(1S-Me-propyl)Gly][N(1S-Me-propyl)Gly][Nlys][N(1S-Me-propyl)Gly][N(1S-Me-propyl)Gly]-NH2)	52.4				100 % of control	100 % of control			100 % of control		>145^§ µg		> 100	completely ineffective	did not cause aggregation
